Measured values: ChEMBL document CHEMBL1201861, “Genomics of Drug Sensitity in Cancer screening data, Wellcome Trust Sanger Institute”
pIC50: −log10 of the molar value.

Experiments:
Experiment in all cases: cells
HCC 2998 = type: functional, cell-based, Homo sapiens; details: Homo sapiens, HCC 2998;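 further: growth inhibition of human HCC2998 cells, measured with a cell viability read-out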
Description: SANGER: Inhibition of human HCC2998 cell growth in a cell viability assay.

U2OS = type: functional, cell-based, Homo sapiens, U-2-OS; details: Homo sapiens, U2OS;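 further: growth inhibition of human U-2-OS cells, determined with a cell viability assay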
Description: SANGER: Inhibition of human U-2-OS cell growth in a cell viability assay.

EM-2 = type: functional, cell-based; details: Homo sapiens;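 further: growth inhibition of EM-2 cells, read out with a cell viability assay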
Description: SANGER: Inhibition of human EM-2 cell growth in a cell viability assay.

no-10 = type: functional, cell-based, Homo sapiens; details: Homo sapiens;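 further: growth inhibition of no-10 cells, read out with a cell viability assay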
Description: SANGER: Inhibition of human no-10 cell growth in a cell viability assay.

NH-12 = type: functional, cell-based, Homo sapiens; details: Homo sapiens, NH-12;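 further: growth inhibition of NH-12 cells, read out with a cell viability assay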
Description: SANGER: Inhibition of human NH-12 cell growth in a cell viability assay.

ES6 = type: functional, cell-based, Homo sapiens; details: Homo sapiens, ES6;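 further: growth inhibition of human ES6 cells, read out with a cell viability assay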
Description: SANGER: Inhibition of human ES6 cell growth in a cell viability assay.

DB = type: functional, cell-based; details: Homo sapiens
Description: SANGER: Inhibition of human DB cell growth in a cell viability assay.

MIA PaCa-2 = type: functional, cell-based, Homo sapiens; details: Homo sapiens, MIA PaCa-2;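 further: growth inhibition of MIA PaCa-2 cells, read out with a cell viability assay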
Description: SANGER: Inhibition of human MIA-PaCa-2 cell growth in a cell viability assay.

SW780 = type: functional, cell-based, Homo sapiens; details: Homo sapiens, SW780;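 further: growth inhibition of the cells, read out with a cell viability assay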
Description: SANGER: Inhibition of human SW780 cell growth in a cell viability assay.

MKN-7 = type: functional, cell-based, Homo sapiens; details: Homo sapiens, MKN-7;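 further: growth inhibition of MKN-7 cells, read out with a cell viability assay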
Description: SANGER: Inhibition of human MKN7 cell growth in a cell viability assay.

A704 = type: functional, cell-based, Homo sapiens; details: Homo sapiens, A704;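 further: growth inhibition of human A704 cells, read out with a cell viability assay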
Description: SANGER: Inhibition of human A704 cell growth in a cell viability assay.

RS4-11 = type: functional, cell-based; details: Homo sapiens;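 further: growth inhibition of RS4-11 cells, read out by a cell viability assay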
Description: SANGER: Inhibition of human RS4-11 cell growth in a cell viability assay.

EW-16 = type: functional, cell-based, Homo sapiens; details: Homo sapiens, EW-16;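 further: growth inhibition of human EW-16 cells, read out as cell viability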
Description: SANGER: Inhibition of human EW-16 cell growth in a cell viability assay.

NCI-H2052 = type: functional, cell-based, Homo sapiens; details: Homo sapiens, NCI-H2052;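 further: growth inhibition of NCI-H2052 cells, read out with a cell viability assay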
Description: SANGER: Inhibition of human NCI-H2052 cell growth in a cell viability assay.

BXPC-3 = type: functional, cell-based, Homo sapiens; details: Homo sapiens, BXPC-3;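 further: growth inhibition of human BxPC-3 cells, read out by a cell viability assay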
Description: SANGER: Inhibition of human BxPC-3 cell growth in a cell viability assay.

SN12C = type: functional, cell-based, Homo sapiens; details: Homo sapiens, SN12C;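 further: growth inhibition of human SN12C cells, measured by a cell viability assay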
Description: SANGER: Inhibition of human SN12C cell growth in a cell viability assay.

KY821 = type: functional, cell-based; details: Homo sapiens;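 further: growth inhibition of human KY821 cells, read out by a cell viability assay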
Description: SANGER: Inhibition of human KY821 cell growth in a cell viability assay.

A2058 = type: functional, cell-based; details: Homo sapiens;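 further: reduction of A2058 cell growth, read out with a viability assay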
Description: SANGER: Inhibition of human A2058 cell growth in a cell viability assay.

647-V = type: functional, cell-based, Homo sapiens; details: Homo sapiens, 647-V;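 further: growth inhibition of 647-V cells, read out with a cell viability assay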
Description: SANGER: Inhibition of human 647-V cell growth in a cell viability assay.

NB6 = type: functional, cell-based, Homo sapiens; details: Homo sapiens, NB6;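 further: growth inhibition of NB6 cells, read out by a cell viability assay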
Description: SANGER: Inhibition of human NB6 cell growth in a cell viability assay.

KINGS-1 = type: functional, cell-based, Homo sapiens; details: Homo sapiens, KINGS-1;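 further: cell viability assay measuring suppression of KINGS-1 cell growth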
Description: SANGER: Inhibition of human KINGS-1 cell growth in a cell viability assay.

TE-6 = type: functional, cell-based, Homo sapiens; details: Homo sapiens, TE-6;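 further: growth inhibition of TE-6 cells, read out with a cell viability assay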
Description: SANGER: Inhibition of human TE-6 cell growth in a cell viability assay.

D-263MG = type: functional, cell-based, Homo sapiens; details: Homo sapiens, D-263MG
Description: SANGER: Inhibition of human D-263MG cell growth in a cell viability assay.

TE-11 = type: functional, cell-based, Homo sapiens; details: Homo sapiens, TE-11;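 further: growth inhibition of human TE-11 cells, read out by a cell viability assay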
Description: SANGER: Inhibition of human TE-11 cell growth in a cell viability assay.

A 172 = type: functional, cell-based, Homo sapiens; details: Homo sapiens, A 172;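 further: growth inhibition of A172 cells, measured with a cell viability readout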
Description: SANGER: Inhibition of human A172 cell growth in a cell viability assay.

NCI-N87 = type: functional, cell-based, Homo sapiens; details: Homo sapiens, NCI-N87;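 further: growth inhibition of human NCI-N87 cells, read out with a cell viability assay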
Description: SANGER: Inhibition of human NCI-N87 cell growth in a cell viability assay.

DOK = type: functional, cell-based, Homo sapiens; details: Homo sapiens, DOK;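 further: cell viability assay read-out, values reflect inhibition of cell growth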
Description: SANGER: Inhibition of human DOK cell growth in a cell viability assay.

OMC-1 = type: functional, cell-based, Homo sapiens; details: Homo sapiens, OMC-1;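 further: growth inhibition of the OMC-1 cell line, measured by a cell viability assay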
Description: SANGER: Inhibition of human OMC-1 cell growth in a cell viability assay.

NCI-H727 = type: functional, cell-based, Homo sapiens; details: Homo sapiens, NCI-H727;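 further: growth inhibition of human NCI-H727 cells, read out with a cell viability assay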
Description: SANGER: Inhibition of human NCI-H727 cell growth in a cell viability assay.

AM-38 = type: functional, cell-based, Homo sapiens; details: Homo sapiens, AM-38;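 further: growth inhibition of AM-38 cells of human origin, read out by a cell viability assay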
Description: SANGER: Inhibition of human AM-38 cell growth in a cell viability assay.

LS-1034 = type: functional, cell-based, Homo sapiens; details: Homo sapiens, LS-1034
Description: SANGER: Inhibition of human LS-1034 cell growth in a cell viability assay.

COLO-679 = type: functional, cell-based, Homo sapiens; details: Homo sapiens, COLO-679
Description: SANGER: Inhibition of human COLO-679 cell growth in a cell viability assay.

TGBC1TKB = type: functional, cell-based, Homo sapiens; details: Homo sapiens, TGBC1TKB;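 further: growth inhibition of TGBC1TKB cells, read out by a cell viability assay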
Description: SANGER: Inhibition of human TGBC1TKB cell growth in a cell viability assay.

EOL1 = type: functional, cell-based; details: Homo sapiens;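 further: growth inhibition of EoL-1 cells, read out by a cell viability assay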
Description: SANGER: Inhibition of human EoL-1-cell cell growth in a cell viability assay.

DOHH-2 = type: functional, cell-based; details: Homo sapiens;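 further: growth inhibition of human DOHH-2 cells, read out with a cell viability assay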
Description: SANGER: Inhibition of human DOHH-2 cell growth in a cell viability assay.

SW 962 = type: functional, cell-based, Homo sapiens; details: Homo sapiens, SW 962;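 further: growth inhibition of human SW962 cells, read out by a cell viability assay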
Description: SANGER: Inhibition of human SW962 cell growth in a cell viability assay.

GAMG = type: functional, cell-based, Homo sapiens; details: Homo sapiens, GAMG;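 further: cell growth inhibition measured by a viability assay in the GAMG human cell line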
Description: SANGER: Inhibition of human GAMG cell growth in a cell viability assay.

SW1710 = type: functional, cell-based, Homo sapiens; details: Homo sapiens, SW1710;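 further: growth inhibition of SW1710 cells, determined with a cell viability assay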
Description: SANGER: Inhibition of human SW1710 cell growth in a cell viability assay.

COLO-824 = type: functional, cell-based, Homo sapiens; details: Homo sapiens, COLO-824
Description: SANGER: Inhibition of human COLO-824 cell growth in a cell viability assay.

MHH-NB-11 = type: functional, cell-based, Homo sapiens; details: Homo sapiens, MHH-NB-11;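 further: growth inhibition of human MHH-NB-11 cells, read out by a cell viability assay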
Description: SANGER: Inhibition of human MHH-NB-11 cell growth in a cell viability assay.

HOP-92 = type: functional, cell-based, Homo sapiens; details: Homo sapiens, HOP-92;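 further: cell viability readout, with IC50 reflecting inhibition of HOP-92 cell growth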
Description: SANGER: Inhibition of human HOP-92 cell growth in a cell viability assay.

SK-MES-1 = type: functional, cell-based, Homo sapiens; details: Homo sapiens, SK-MES-1;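 further: growth inhibition of human SK-MES-1 cells, read out with a cell viability assay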
Description: SANGER: Inhibition of human SK-MES-1 cell growth in a cell viability assay.

SW 954 = type: functional, cell-based, Homo sapiens; details: Homo sapiens, SW 954;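 further: growth inhibition of SW954 human cancer cells, read out as cell viability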
Description: SANGER: Inhibition of human SW954 cell growth in a cell viability assay.

UMC-11 = type: functional, cell-based, Homo sapiens; details: Homo sapiens, UMC-11;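 further: growth inhibition of UMC-11 cells, read out with a cell viability assay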
Description: SANGER: Inhibition of human UMC-11 cell growth in a cell viability assay.

COLO-320-HSR = type: functional, cell-based; details: Homo sapiens;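 further: growth inhibition of COLO-320-HSR cells, determined with a cell viability assay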
Description: SANGER: Inhibition of human COLO-320-HSR cell growth in a cell viability assay.

HT = type: functional, cell-based; details: Homo sapiens
Description: SANGER: Inhibition of human HT cell growth in a cell viability assay.

SBC-5 = type: functional, cell-based, Homo sapiens; details: Homo sapiens, SBC-5;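 further: cell viability assay read-out, IC50 is the concentration that inhibits growth of the cells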
Description: SANGER: Inhibition of human SBC-5 cell growth in a cell viability assay.

GR-ST = type: functional, cell-based; details: Homo sapiens
Description: SANGER: Inhibition of human GR-ST cell growth in a cell viability assay.

NCI-H2030 = type: functional, cell-based, Homo sapiens; details: Homo sapiens, NCI-H2030;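 further: growth inhibition of human NCI-H2030 cells, read out by a cell viability assay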
Description: SANGER: Inhibition of human NCI-H2030 cell growth in a cell viability assay.

KM12 = type: functional, cell-based, Homo sapiens; details: Homo sapiens, KM12;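 further: KM12 cell growth inhibition, read out with a cell viability assay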
Description: SANGER: Inhibition of human KM12 cell growth in a cell viability assay.

SW837 = type: functional, cell-based, Homo sapiens; details: Homo sapiens, SW837;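 further: growth inhibition of SW837 cells, determined with a cell viability assay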
Description: SANGER: Inhibition of human SW837 cell growth in a cell viability assay.

HCC1569 = type: functional, cell-based, Homo sapiens; details: Homo sapiens, HCC1569;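 further: growth inhibition of human HCC1569 cells, read out with a cell viability assay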
Description: SANGER: Inhibition of human HCC1569 cell growth in a cell viability assay.

CC(=O)O[C@@]12CO[C@@H]1C[C@H](O)[C@@]1(C)C(=O)[C@H](O)C3=C(C)[C@@H](OC(=O)[C@H](O)[C@@H](NC(=O)OC(C)(C)C)c4ccccc4)C[C@@](O)([C@@H](OC(=O)c4ccccc4)[C@H]21)C3(C)C [DOCETAXEL]
pIC50 (HCC 2998): 8.39 | pIC50 (U2OS): 8.76 | pIC50 (EM-2): 8.21 | pIC50 (no-10): 8.10 | pIC50 (NH-12): < 8.00 | pIC50 (ES6): < 8.00 | pIC50 (DB): 8.75 | pIC50 (MIA PaCa-2): 8.49 | pIC50 (SW780): 9.23 | pIC50 (MKN-7): < 8.00 | pIC50 (A704): < 8.00 | pIC50 (RS4-11): < 8.00 | pIC50 (EW-16): 8.87 | pIC50 (NCI-H2052): 8.14 | pIC50 (BXPC-3): 8.60 | pIC50 (SN12C): 8.26 | pIC50 (KY821): 8.26 | pIC50 (A2058): 9.26 | pIC50 (647-V): 8.73 | pIC50 (NB6): < 8.00 | pIC50 (KINGS-1): 8.93 | pIC50 (TE-6): < 8.00 | pIC50 (D-263MG): 9.02 | pIC50 (TE-11): 9.25 | pIC50 (A 172): 8.79 | pIC50 (NCI-N87): < 8.00 | pIC50 (DOK): 8.53 | pIC50 (OMC-1): 8.04 | pIC50 (NCI-H727): < 8.00 | pIC50 (AM-38): < 8.00 | pIC50 (LS-1034): < 8.00 | pIC50 (COLO-679): < 8.00 | pIC50 (TGBC1TKB): 8.04 | pIC50 (EOL1): 8.76 | pIC50 (DOHH-2): 8.20 | pIC50 (SW 962): 8.53 | pIC50 (GAMG): 9.38 | pIC50 (SW1710): 9.33 | pIC50 (COLO-824): 8.23 | pIC50 (MHH-NB-11): < 8.00 | pIC50 (HOP-92): 8.14 | pIC50 (SK-MES-1): 8.63 | pIC50 (SW 954): 9.08 | pIC50 (UMC-11): < 8.00 | pIC50 (COLO-320-HSR): < 8.00 | pIC50 (HT): < 8.00 | pIC50 (SBC-5): 8.73 | pIC50 (GR-ST): < 8.00 | pIC50 (NCI-H2030): < 8.00 | pIC50 (KM12): 8.39 | pIC50 (SW837): < 8.00 | pIC50 (HCC1569): < 8.00
